According to patent publication US20190192521A1, “Methods of Treating Arid1A-Mutated Cancers With HDAC6 Inhibitors and EZH2 Inhibitors” (The Wistar Institute of Anatomy and Biology, priority 2016, published 2019):

Key:
[1] = system: cells derived from Apc−/−/Pten−/−/Arid1a−/− and Apc−/−/Pten−/− tumours; experiment: ACY1215 sensitivity of cells derived from mouse endometrioid tumours; type: cell-based
OVCA429 cells = experiment: colony formation assay, control and ARID1A CRISPR OVCA429 cells; type: cell-based, human; conditions: 1.25 μM
Experimental: FIG. 72 illustrates control and ARID1A CRISPR OVCA429 cells treated with or without 1.25 μM ACY1215 in a colony formation assay.
FIG. 73 illustrates the quantification of ARID1A CRISPR OVCA429 cells treated with or without 1.25 μM ACY1215 in a colony formation assay; n=4 independent experiments.
Generation of ARID1A CRISPR OVCA429 cells. OVCA429 cells were transfected with CRISPR-ARID1A (pSpCas9(BB)-2A-Puro (PX459)). The ARID1A gRNA sequence is: 5′-[…]-3′ (SEQ ID NO:33). Fugene6 transfection reagent (Promega) was used as per manufacturer's specifications. Clonal populations for the loss of ARID1A expression were screened through immunoblot.
(§1) Colony formation assays were performed as follows. Cell lines were infected with lentivirus pLKO.1-shRNAs or pLKO.1-control with puromycin selection marker. Infected cells were selected with 1 μg/mL of puromycin for 72 hours and the selected cells were seeded in 12-well or 24-well plates. Cell medium was changed every three days with appropriate drug doses for 14 days or until control wells became confluent. Colonies were washed twice with PBS and fixed with 10% methanol and 10% acetic acid in distilled water. Fixed colonies were stained with 0.005% crystal violet. Integrated density was measured using NIH ImageJ software.

[2] = system: ARID1A wild-type RMG1 cells; experiment: apoptosis (Annexin V, cleaved caspase 3, cleaved PARP p85) in ARID1A wild-type cells; type: cell-based, human; conditions: 1.25 μM
Experimental: Expression of apoptotic markers cleaved caspase 3 and cleaved PARP p85 by immunoblot. GAPDH expression was used as a loading control.
(§2) For immunoblotting, protein was isolated as described in Bitler et al. Nat. Med. 2015, 21, 231-238. Briefly, protein was extracted with RIPA buffer (150 mM NaCl, 1% NP40, 0.5% sodium deoxycholate, 0.1% SDS, 50 mM Tris pH 8.0, and 1 mM PMSF). Protein was separated on a SDS-PAGE and transferred to PVDF membrane. For immunoblot of p53 post-translation modifications, cells were treated with a proteasome inhibitor MG132 (10 μM) to stabilize p53 protein.
Annexin V and mitochondria membrane potentials were measured as follows. Phosphatidylserine externalization was detected using an Annexin V staining kit (Life Technologies) following the manufacturer's instructions. To measure change in mitochondria membrane potential cells were treated with 200 nM of tetramethylrhodamine, ethyl ester (TMRE; Abcam) for 15 min at 37° C. Annexin V and TMRE-positive cells were detected using the LSR18 and analyzed with the FlowJo software module.

[3] = system: p53 acetylation (lysine 120, 373, 382) in ARID1A-mutated TOV21G cells; experiment: immunoblot of p53 acetylation, TOV21G; type: cell-based, human; conditions: 1.25 μM
Experimental: Expression of the indicated proteins was determined by immunoblot. GAPDH expression was used as a loading control.
as §2

[4] = system: ovarian clear cell carcinoma cell lines with known ARID1A mutational status; experiment: colony formation assay, panel of ovarian clear cell carcinoma cell lines with or without ARID1A mutation; type: cell-based, human; conditions: 12 days
Experimental: After 12 days culture, integrated density of colony formed by the indicated cells was quantified using NIH Image J software, and values were normalized to vehicle control. Data represent triplicates from independent experiments. Error bars represent S.E.M. The p-value was calculated via two-tailed t-test.
Indicated ovarian clear cell carcinoma cell lines with known ARID1A mutational status were treated with the indicated concentration of HDAC6 inhibitor CAY10603 or vehicle control in a colony formation assay. After 12 days culture, integrated density of colony formed by the indicated cells was quantified using NIH Image J software, and values were normalized to vehicle control. Data represent triplicates from independent experiments. Error bars represent S.E.M.
as §1

[5] = system: ARID1A-mutated TOV21G cells; experiment: apoptosis and growth inhibition with or without p53 knockdown, TOV21G; type: cell-based, human
Experimental: Growth inhibition was calculated based on integrated density as measured in NIH ImageJ, and values were normalized to vehicle control. Data is representative of 3 independent experiments. Error bars represent S.E.M. The p-value was calculated via two-tailed t-test.
FIG. 91 illustrates dose responsive curves of the indicated cells treated with the HDAC6 inhibitor ACY1215; ARID1A wildtype RMG1 and OVCA429 cells were used as controls for comparison; n=4 independent experiments; error bars represent S.E.M. P-value calculated via two-tailed t-test.
FIG. 92 illustrates ARID1A-mutated TOV21G with or without p53 knockdown treated with ACY1215 (1.25 μM) or DMSO controls for 48 hours; percent apoptosis was quantified by FACS analysis based on Annexin V staining; n=3 independent experiments.
FIG. 97 illustrates ARID1A-mutated TOV21G cells with or without endogenous p53 knockdown by a shp53 that targets the 3′ UTR […] region of the human TP53 gene together with a lentivirus encoding a control, wildtype p53 or a p53K12OR mutant—the percentage of surviving cells of the indicated cells treated with ACY1215 was determined by colony formation assay; n=4 independent experiments.
Annexin V and mitochondria membrane potentials were measured as follows. Phosphatidylserine externalization was detected using an Annexin V staining kit (Life Technologies) following the manufacturer's instructions. […]

[6] = system: cells with BRG1 knockdown; experiment: ACY1215 sensitivity after knockdown of SWI/SNF subunit BRG1; type: cell-based
Experimental: Retrovirus production and transduction were performed as described in Aird et al. Cell Reports 2013, 3, 1252-1265, and Bitler et al. Nat. Med. 2015, 21, 231-238. Phoenix cells were used to package the viruses. Lentivirus was packaged using the Virapower Kit from Life Technologies (Carlsbad, Calif.) following the manufacturer's instructions, and as described Aird et al. Cell Reports 2013, 3, 1252-1265, and Bitler et al. Nat. Med. 2015, 21, 231-238. pLKO.1-shARID1As (TRCN0000059090), pLKO.1-shp53 (TRCN0000010814 and TRCN0000003755), pLKO.1-shHDAC6 (TRCN0000004839 and TRCN0000004841), pLKO.1-shCaspase 3 (TRCN0000003550), shCaspase 9 (TRCN0000003583), shCaspase 8 (TRCN0000003577 and TRCN0000003579)and shBRG1 (TRCN0000015549 and TRCN0000015552) were obtained from Open Biosystems. A shRNA to luciferase was used as a control. […] Cells infected with viruses encoding the puromycin resistance gene were selected in 1 μg/ml puromycin.

O=C(CCCCCCNC(=O)c1cnc(N(c2ccccc2)c2ccccc2)nc1)NO [rocilinostat, 2-(diphenylamino)-N-(7-(hydroxyamino)-7-oxoheptyl)pyrimidine-5-carboxamide]
sensitivity of Apc−/−/Pten−/−/Arid1a−/− tumour cells compared with Apc−/−/Pten−/− tumour cells [1]: more sensitive
effect of ARID1A knockout on sensitivity (OVCA429 cells): significantly increased the sensitivity
apoptosis in ARID1A wild type cells [2]: did not induce a significant increase in apoptosis
markers of apoptosis in ARID1A wild-type cells with ARID1A knockdown ([2]; shARID1A): significantly increased markers of apoptosis
acetylation status of lysine 373 or 382 residue of p53 [3]: unchanged
p53K120Ac level [3]: upregulated
sensitivity of ARID1A-mutated cells compared with ARID1A wild-type cells [4]: more sensitive
effect of p53 knockdown on apoptosis and growth inhibition induced by the compound [5]: significantly impaired the apoptosis and growth inhibition
rescue of p53 knockdown-mediated impairment of compound-induced growth inhibition ([5]; wildtype p53 or p53K120R): wildtype p53 but not the p53K120R mutant rescued
effect of BRG1 knockdown on sensitivity [6]: did not increase
